Test results published in the kinase profiling compilation of Christmann-Franck et al. (2016).
One block for each molecule: values may come before it.

Columns and labels:
Test in all cases: KINOMEscan competition binding
Details in all cases: compound 10.0 µM
[1] = molecular target: TGFBR2 (human) (UniProt P37173)
[2] = molecular target: MAPKAPK2 (human) (UniProt P49137)
[3] = molecular target: NEK9 (human) (UniProt Q8TD19)
[4] = molecular target: ACVR2A (human) (UniProt P27037)
[5] = molecular target: MERTK (human) (UniProt Q12866)
[6] = molecular target: MARK1 (human) (UniProt Q9P0L2)
[7] = molecular target: LTK (human) (UniProt P29376)
[8] = system: EGFR (human), P00533 [L858R]
[9] = molecular target: RIPK2 (human) (UniProt O43353)
[10] = molecular target: INSR (human) (UniProt P06213)
[11] = molecular target: PIK3CB (human) (UniProt P42338)
[12] = molecular target: PKMYT1 (human) (UniProt Q99640)
[13] = molecular target: CAMKK2 (human) (UniProt Q96RR4)
[14] = molecular target: PAK4 (human) (UniProt O96013)
[15] = molecular target: FGFR2 (human) (UniProt P21802)
[16] = molecular target: PDGFRA (human) (UniProt P16234)
[17] = molecular target: EPHB3 (human) (UniProt P54753)
[18] = molecular target: PIK3CG (human) (UniProt P48736)
[19] = molecular target: CSK (human) (UniProt P41240)
[20] = molecular target: PIP4K2B (human) (UniProt P78356)
[21] = molecular target: RPS6KA2 KD1 (human) (UniProt Q15349)
[22] = molecular target: LATS2 (human) (UniProt Q9NRM7)
[23] = molecular target: JAK1 JH2 pseudokinase (human) (UniProt P23458)
[24] = molecular target: LATS1 (human) (UniProt O95835)
[25] = molecular target: MAP4K2 (human) (UniProt Q12851)
[26] = molecular target: JAK1 JH1 catalytic (human) (UniProt P23458)
[27] = molecular target: BMP2K (human) (UniProt Q9NSY1)
[28] = molecular target: EGFR (human) (UniProt P00533)
[29] = molecular target: RIPK4 (human) (UniProt P57078)
[30] = molecular target: STK11 (human) (UniProt Q15831)
[31] = molecular target: ERBB2 (human) (UniProt P04626)
[32] = system: EGFR (human), P00533 [752-759 del]
[33] = molecular target: ZAP70 (human) (UniProt P43403)
[34] = molecular target: CDK17 (human) (UniProt Q00537)
[35] = system: EGFR (human), P00533 [746-750 del]
[36] = molecular target: BMPR2 (human) (UniProt Q13873)
[37] = molecular target: PRKCE (human) (UniProt Q02156)
[38] = molecular target: CAMK1G (human) (UniProt Q96NX5)
[39] = molecular target: ALK (human) (UniProt Q9UM73)
[40] = system: FLT3 (human), P36888 [N841I]
[41] = molecular target: FLT3 (human) (UniProt P36888)
[42] = molecular target: BMX (human) (UniProt P51813)

PIK3CG (human), sequence (P48736 whole entry, looked up): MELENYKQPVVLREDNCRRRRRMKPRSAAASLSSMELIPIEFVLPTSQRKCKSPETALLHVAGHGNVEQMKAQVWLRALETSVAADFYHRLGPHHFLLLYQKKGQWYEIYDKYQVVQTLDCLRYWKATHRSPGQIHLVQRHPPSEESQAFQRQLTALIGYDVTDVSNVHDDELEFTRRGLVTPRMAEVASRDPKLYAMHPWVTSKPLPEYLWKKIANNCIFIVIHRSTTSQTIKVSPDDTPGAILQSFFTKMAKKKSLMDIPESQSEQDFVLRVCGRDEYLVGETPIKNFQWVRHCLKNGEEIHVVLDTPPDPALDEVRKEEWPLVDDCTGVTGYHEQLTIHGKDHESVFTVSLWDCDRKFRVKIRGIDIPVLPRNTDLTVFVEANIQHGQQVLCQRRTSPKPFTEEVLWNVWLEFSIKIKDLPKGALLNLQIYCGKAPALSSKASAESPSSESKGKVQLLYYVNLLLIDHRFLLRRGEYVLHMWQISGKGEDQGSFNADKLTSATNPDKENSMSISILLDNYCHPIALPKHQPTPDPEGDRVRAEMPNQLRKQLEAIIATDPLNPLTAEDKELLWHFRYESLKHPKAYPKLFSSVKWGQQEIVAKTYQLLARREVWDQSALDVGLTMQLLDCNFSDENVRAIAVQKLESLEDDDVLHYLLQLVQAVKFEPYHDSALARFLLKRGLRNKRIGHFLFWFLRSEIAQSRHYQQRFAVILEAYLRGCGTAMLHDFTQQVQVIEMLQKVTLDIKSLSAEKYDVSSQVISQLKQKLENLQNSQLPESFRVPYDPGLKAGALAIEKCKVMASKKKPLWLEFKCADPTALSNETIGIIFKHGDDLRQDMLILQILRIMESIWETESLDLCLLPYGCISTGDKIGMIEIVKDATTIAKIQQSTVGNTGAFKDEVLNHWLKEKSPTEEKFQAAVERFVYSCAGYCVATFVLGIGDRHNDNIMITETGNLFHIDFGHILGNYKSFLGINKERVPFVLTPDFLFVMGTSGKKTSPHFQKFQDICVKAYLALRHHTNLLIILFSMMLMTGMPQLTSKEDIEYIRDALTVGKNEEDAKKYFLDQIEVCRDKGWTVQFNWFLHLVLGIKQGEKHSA
RPS6KA2 KD1 (human), sequence (Q15349 whole entry, looked up): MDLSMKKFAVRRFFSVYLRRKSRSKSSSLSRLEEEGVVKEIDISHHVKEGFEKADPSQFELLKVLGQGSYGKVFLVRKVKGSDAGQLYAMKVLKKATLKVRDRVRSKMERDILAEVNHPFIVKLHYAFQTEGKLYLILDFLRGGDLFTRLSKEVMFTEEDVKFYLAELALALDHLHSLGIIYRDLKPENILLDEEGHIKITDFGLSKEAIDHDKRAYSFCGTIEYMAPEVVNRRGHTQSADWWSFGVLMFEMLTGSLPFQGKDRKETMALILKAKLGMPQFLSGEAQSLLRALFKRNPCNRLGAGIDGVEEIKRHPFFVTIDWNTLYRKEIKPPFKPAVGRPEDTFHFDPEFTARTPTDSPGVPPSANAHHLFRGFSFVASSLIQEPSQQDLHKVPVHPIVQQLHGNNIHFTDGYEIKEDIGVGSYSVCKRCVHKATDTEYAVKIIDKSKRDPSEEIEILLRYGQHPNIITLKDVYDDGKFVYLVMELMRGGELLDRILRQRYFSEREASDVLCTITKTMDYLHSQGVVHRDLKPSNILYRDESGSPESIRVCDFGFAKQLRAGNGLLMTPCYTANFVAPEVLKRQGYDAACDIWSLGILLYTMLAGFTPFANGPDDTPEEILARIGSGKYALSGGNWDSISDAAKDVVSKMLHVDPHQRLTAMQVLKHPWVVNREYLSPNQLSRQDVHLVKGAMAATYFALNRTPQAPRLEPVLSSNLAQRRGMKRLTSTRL
NEK9 (human), sequence (Q8TD19 whole entry, looked up): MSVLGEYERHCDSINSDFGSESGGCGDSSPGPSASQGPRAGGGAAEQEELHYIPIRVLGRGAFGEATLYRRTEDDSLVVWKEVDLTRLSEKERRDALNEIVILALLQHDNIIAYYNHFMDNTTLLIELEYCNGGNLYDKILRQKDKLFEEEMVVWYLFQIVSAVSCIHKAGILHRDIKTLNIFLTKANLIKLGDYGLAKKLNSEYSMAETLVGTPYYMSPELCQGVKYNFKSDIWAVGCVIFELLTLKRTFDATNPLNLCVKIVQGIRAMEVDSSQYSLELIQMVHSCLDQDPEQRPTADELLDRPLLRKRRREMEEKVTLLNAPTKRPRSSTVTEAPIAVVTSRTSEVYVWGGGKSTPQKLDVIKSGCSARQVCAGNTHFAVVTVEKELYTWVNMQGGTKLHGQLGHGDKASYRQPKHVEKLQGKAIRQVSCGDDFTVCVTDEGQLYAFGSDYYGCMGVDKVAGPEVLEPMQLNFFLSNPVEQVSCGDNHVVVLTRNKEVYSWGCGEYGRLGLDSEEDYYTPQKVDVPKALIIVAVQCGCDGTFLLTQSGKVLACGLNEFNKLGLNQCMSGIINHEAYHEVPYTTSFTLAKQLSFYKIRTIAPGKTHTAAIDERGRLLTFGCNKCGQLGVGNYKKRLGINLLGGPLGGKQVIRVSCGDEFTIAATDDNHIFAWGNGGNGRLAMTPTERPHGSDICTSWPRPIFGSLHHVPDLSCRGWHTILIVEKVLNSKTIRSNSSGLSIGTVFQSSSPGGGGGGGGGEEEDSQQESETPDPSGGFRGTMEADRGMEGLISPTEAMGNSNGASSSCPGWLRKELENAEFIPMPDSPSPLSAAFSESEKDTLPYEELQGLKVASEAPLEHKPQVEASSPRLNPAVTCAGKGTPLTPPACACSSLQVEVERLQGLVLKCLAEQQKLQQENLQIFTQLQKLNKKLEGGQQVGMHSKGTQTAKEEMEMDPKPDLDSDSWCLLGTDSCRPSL
ALK (human), sequence (Q9UM73 whole entry, looked up): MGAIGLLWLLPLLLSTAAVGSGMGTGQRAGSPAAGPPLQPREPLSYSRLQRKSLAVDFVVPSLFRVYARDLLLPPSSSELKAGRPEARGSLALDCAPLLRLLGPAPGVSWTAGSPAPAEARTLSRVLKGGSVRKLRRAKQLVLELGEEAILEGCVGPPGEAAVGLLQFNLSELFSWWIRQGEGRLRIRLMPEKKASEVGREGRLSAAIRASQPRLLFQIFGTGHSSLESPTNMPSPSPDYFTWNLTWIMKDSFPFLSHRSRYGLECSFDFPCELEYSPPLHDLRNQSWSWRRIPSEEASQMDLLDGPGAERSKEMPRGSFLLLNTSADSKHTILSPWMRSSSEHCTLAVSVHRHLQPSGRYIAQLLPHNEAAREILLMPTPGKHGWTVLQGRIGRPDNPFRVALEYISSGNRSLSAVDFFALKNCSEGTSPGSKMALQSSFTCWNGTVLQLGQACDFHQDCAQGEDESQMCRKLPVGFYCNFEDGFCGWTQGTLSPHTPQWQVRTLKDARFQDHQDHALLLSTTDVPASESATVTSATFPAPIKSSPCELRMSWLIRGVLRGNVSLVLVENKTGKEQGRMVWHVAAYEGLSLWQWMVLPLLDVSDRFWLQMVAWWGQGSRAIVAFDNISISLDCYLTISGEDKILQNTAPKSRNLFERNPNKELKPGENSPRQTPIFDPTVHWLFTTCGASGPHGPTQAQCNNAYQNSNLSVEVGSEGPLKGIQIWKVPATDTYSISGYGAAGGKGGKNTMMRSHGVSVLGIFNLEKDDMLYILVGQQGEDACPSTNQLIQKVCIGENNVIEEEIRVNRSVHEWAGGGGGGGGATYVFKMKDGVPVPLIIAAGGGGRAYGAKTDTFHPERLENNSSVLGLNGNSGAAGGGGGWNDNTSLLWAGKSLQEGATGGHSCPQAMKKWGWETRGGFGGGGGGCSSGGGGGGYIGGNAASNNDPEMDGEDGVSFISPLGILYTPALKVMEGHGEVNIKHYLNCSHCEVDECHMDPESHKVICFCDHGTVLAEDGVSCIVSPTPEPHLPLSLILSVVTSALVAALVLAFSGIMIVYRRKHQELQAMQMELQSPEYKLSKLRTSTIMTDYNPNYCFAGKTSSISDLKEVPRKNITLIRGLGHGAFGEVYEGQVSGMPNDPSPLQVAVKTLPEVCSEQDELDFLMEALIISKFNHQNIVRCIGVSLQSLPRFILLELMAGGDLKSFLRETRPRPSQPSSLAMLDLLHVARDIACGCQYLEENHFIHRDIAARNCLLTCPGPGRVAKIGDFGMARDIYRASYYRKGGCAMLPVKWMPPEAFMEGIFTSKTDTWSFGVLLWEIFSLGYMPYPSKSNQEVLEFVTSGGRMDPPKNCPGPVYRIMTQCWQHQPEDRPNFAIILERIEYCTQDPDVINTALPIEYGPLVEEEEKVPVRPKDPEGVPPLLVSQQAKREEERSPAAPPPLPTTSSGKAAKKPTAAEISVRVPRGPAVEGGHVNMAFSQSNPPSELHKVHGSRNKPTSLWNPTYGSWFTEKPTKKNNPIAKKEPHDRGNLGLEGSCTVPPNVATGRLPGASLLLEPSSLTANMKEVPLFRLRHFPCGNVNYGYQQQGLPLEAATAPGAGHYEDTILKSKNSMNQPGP
CDK17 (human), sequence (Q00537 whole entry, looked up): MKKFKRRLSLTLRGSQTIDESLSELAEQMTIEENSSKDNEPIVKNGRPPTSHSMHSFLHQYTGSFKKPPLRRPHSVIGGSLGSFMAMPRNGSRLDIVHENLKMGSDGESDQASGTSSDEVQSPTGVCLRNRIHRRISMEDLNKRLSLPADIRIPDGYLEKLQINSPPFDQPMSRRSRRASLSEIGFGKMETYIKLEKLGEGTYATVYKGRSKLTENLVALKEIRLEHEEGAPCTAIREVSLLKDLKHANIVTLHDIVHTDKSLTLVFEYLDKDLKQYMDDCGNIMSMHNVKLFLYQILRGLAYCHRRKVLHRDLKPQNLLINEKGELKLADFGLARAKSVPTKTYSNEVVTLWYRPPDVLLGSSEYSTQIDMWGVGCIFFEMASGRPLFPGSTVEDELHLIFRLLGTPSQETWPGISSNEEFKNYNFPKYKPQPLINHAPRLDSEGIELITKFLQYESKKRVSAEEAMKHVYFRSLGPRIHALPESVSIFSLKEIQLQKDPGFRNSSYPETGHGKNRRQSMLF

kinase still bound, per cent of control [1]: 2.7%
kinase still bound, per cent of control [2]: 40%
kinase still bound, per cent of control [4]: 12%
kinase still bound, per cent of control [5]: 0%
kinase still bound, per cent of control [6]: 0%
kinase still bound, per cent of control [7]: 0%
kinase still bound, per cent of control [8]: 0.1%
kinase still bound, per cent of control [9]: 40%
kinase still bound, per cent of control [10]: 0%
kinase still bound, per cent of control [11]: 40%
kinase still bound, per cent of control [12]: 40%
kinase still bound, per cent of control [13]: 0.1%
kinase still bound, per cent of control [14]: 9.6%
kinase still bound, per cent of control [15]: 0.95%
kinase still bound, per cent of control [16]: 0.85%
kinase still bound, per cent of control [17]: 18%
kinase still bound, per cent of control [18]: 40%
kinase still bound, per cent of control [19]: 2%
kinase still bound, per cent of control [20]: 11%
kinase still bound, per cent of control [21]: 0.05%
kinase still bound, per cent of control [22]: 17%
kinase still bound, per cent of control [23]: 4.2%
kinase still bound, per cent of control [24]: 32%
kinase still bound, per cent of control [25]: 9.4%
kinase still bound, per cent of control [26]: 4.7%
kinase still bound, per cent of control [27]: 2.8%
kinase still bound, per cent of control [28]: 0.1%
kinase still bound, per cent of control [29]: 40%
kinase still bound, per cent of control [30]: 40%
kinase still bound, per cent of control [31]: 8%
kinase still bound, per cent of control [32]: 1.4%
kinase still bound, per cent of control [33]: 10%
kinase still bound, per cent of control [34]: 9.9%
kinase still bound, per cent of control [35]: 0%
kinase still bound, per cent of control [36]: 40%
Compound: COc1cc(N2CCC(N3CCN(C)CC3)CC2)ccc1Nc1ncc(Cl)c(Nc2ccccc2S(=O)(=O)C(C)C)n1
kinase still bound, per cent of control [3]: 3.3%

Compound: CCN1CCN(Cc2ccc(NC(=O)c3ccc(C)c(/C=C/c4cnc(Nc5cc(N6CCNCC6)nc(C)n5)cn4)c3)cc2C(F)(F)F)CC1
kinase still bound, per cent of control [37]: 68%
kinase still bound, per cent of control [1]: 54%
kinase still bound, per cent of control [2]: 100%
kinase still bound, per cent of control [3]: 27%
kinase still bound, per cent of control [4]: 100%
kinase still bound, per cent of control [5]: 31%
kinase still bound, per cent of control [6]: 100%
kinase still bound, per cent of control [7]: 100%
kinase still bound, per cent of control [8]: 3.4%
kinase still bound, per cent of control [9]: 5.4%
kinase still bound, per cent of control [10]: 65%
kinase still bound, per cent of control [11]: 85%
kinase still bound, per cent of control [12]: 100%
kinase still bound, per cent of control [13]: 95%
kinase still bound, per cent of control [14]: 100%
kinase still bound, per cent of control [15]: 10%
kinase still bound, per cent of control [16]: 2.8%
kinase still bound, per cent of control [17]: 100%
kinase still bound, per cent of control [18]: 100%
kinase still bound, per cent of control [19]: 0.55%
kinase still bound, per cent of control [20]: 83%
kinase still bound, per cent of control [21]: 69%
kinase still bound, per cent of control [22]: 36%
kinase still bound, per cent of control [23]: 94%
kinase still bound, per cent of control [24]: 55%
kinase still bound, per cent of control [25]: 0.1%
kinase still bound, per cent of control [38]: 99%
kinase still bound, per cent of control [26]: 80%
kinase still bound, per cent of control [27]: 100%
kinase still bound, per cent of control [39]: 100%
kinase still bound, per cent of control [28]: 12%
kinase still bound, per cent of control [40]: 0%
kinase still bound, per cent of control [29]: 17%
kinase still bound, per cent of control [41]: 3.8%
kinase still bound, per cent of control [30]: 76%
kinase still bound, per cent of control [42]: 12%
kinase still bound, per cent of control [31]: 0%
kinase still bound, per cent of control [32]: 6.2%
kinase still bound, per cent of control [33]: 15%
kinase still bound, per cent of control [34]: 60%
kinase still bound, per cent of control [35]: 17%
kinase still bound, per cent of control [36]: 100%

Compound: CCOc1cc(N2CCC(N3CCCCC3)CC2)ccc1Nc1nc(Nc2ccccc2S(=O)(=O)C(C)C)c2cn[nH]c2n1
kinase still bound, per cent of control [37]: 62%
kinase still bound, per cent of control [1]: 100%
kinase still bound, per cent of control [2]: 100%
kinase still bound, per cent of control [3]: 100%
kinase still bound, per cent of control [4]: 100%
kinase still bound, per cent of control [5]: 100%
kinase still bound, per cent of control [6]: 100%
kinase still bound, per cent of control [7]: 1.7%
kinase still bound, per cent of control [8]: 6.6%
kinase still bound, per cent of control [9]: 100%
kinase still bound, per cent of control [10]: 0.3%
kinase still bound, per cent of control [11]: 17%
kinase still bound, per cent of control [12]: 69%
kinase still bound, per cent of control [13]: 46%
kinase still bound, per cent of control [14]: 85%
kinase still bound, per cent of control [15]: 100%
kinase still bound, per cent of control [16]: 100%
kinase still bound, per cent of control [17]: 100%
kinase still bound, per cent of control [18]: 100%
kinase still bound, per cent of control [19]: 100%
kinase still bound, per cent of control [20]: 100%
kinase still bound, per cent of control [21]: 77%
kinase still bound, per cent of control [22]: 88%
kinase still bound, per cent of control [23]: 1.3%
kinase still bound, per cent of control [24]: 100%
kinase still bound, per cent of control [25]: 97%
kinase still bound, per cent of control [38]: 26%
kinase still bound, per cent of control [26]: 100%
kinase still bound, per cent of control [27]: 47%
kinase still bound, per cent of control [39]: 34%
kinase still bound, per cent of control [28]: 4.1%
kinase still bound, per cent of control [40]: 100%
kinase still bound, per cent of control [29]: 76%
kinase still bound, per cent of control [41]: 100%
kinase still bound, per cent of control [30]: 100%
kinase still bound, per cent of control [42]: 100%
kinase still bound, per cent of control [31]: 37%
kinase still bound, per cent of control [32]: 49%
kinase still bound, per cent of control [33]: 32%
kinase still bound, per cent of control [34]: 100%
kinase still bound, per cent of control [35]: 20%
kinase still bound, per cent of control [36]: 85%

kinase still bound, per cent of control [37]: 20%
kinase still bound, per cent of control [7]: 1.2%
kinase still bound, per cent of control [8]: 14%
kinase still bound, per cent of control [10]: 30%
kinase still bound, per cent of control [13]: 28%
kinase still bound, per cent of control [15]: 1.4%
kinase still bound, per cent of control [16]: 0.6%
kinase still bound, per cent of control [19]: 0.45%
kinase still bound, per cent of control [22]: 13%
kinase still bound, per cent of control [23]: 11%
kinase still bound, per cent of control [25]: 0.3%
kinase still bound, per cent of control [38]: 20%
kinase still bound, per cent of control [39]: 0.55%
kinase still bound, per cent of control [28]: 5.6%
kinase still bound, per cent of control [40]: 0%
kinase still bound, per cent of control [41]: 0.15%
kinase still bound, per cent of control [42]: 2.4%
kinase still bound, per cent of control [32]: 4.6%
kinase still bound, per cent of control [34]: 0.1%
kinase still bound, per cent of control [35]: 8.4%
Compound: CCN1CCN(Cc2ccc(NC(=O)c3ccc(C)c(Oc4ccnc5[nH]ccc45)c3)cc2C(F)(F)F)CC1
